Point of comparison: `COC(=O)c1sccc1Nc1ccccc1[N+](=O)[O-]`, melting point 184 °C. Against it:
- COC(=O)C=Cc1cnc(C(=O)OC)cc1C(=O)OC — lower, 126 to 128 °C
- N#Cc1cccc(NC2CCN(Cc3cc(F)cc(C(F)(F)F)c3)CC2)n1 — lower, 115 °C
- CC(S)C(O)(Cn1cncn1)c1ccc(F)cc1F (centres undefined) — lower, 145 to 147 °C
- NC(=O)N1CCC(C2c3ncc(Br)cc3CCc3cc(Cl)cc(Cl)c32)CC1 (single isomer, unassigned; (+)) — lower, 102 to 103 °C
- CS(=O)(=O)c1ccc(-c2cnn(-c3cccc(Cl)c3)c(=O)c2SCc2ccccc2)cc1 — lower, 142 to 145 °C
- C=Cc1ccc(NS(C)(=O)=O)c(F)c1 — lower, 82 °C
- CC(=O)c1[nH]c(C)nc1C — lower, 83 to 87 °C
- CCOC(=O)CCC(=O)c1ccc2c(c1)CCC2 — lower, 51 to 52 °C
- Nc1ccc(OCc2nc3ccccc3s2)cc1 — lower, 87 to 89 °C
- COc1ccc(S(=O)(=O)Nc2ccc(Cl)nc2Nc2ccccc2)cc1 — higher, 206 to 208 °C
- CC(=O)Nc1cccc2c1C(=O)c1c-2n[nH]c1-c1ccc(N2CCOCC2)cc1 — higher, > 300 °C
- COCCn1cc(C(=O)NCc2ccc(Cl)cc2)c(=O)c2cc(CCl)sc21 — higher, 192 to 193 °C
- CCC1(CC)CN(C(C)(C)C)C(=O)C(C)(CC)N1OC(C)(C)C#N (centres undefined) — lower, 78 to 80 °C
- CCCCC(=O)Nc1ccc(N)cc1 — lower, 81 to 83 °C
- NCCCC(N)(C(=O)O)C(F)F (centres undefined) — lower, 183 °C
- CCCCCCCCCCCCC/C=C(\C(=O)Nc1ccc(C(=O)OC)cc1)c1ccc2c(c1)C(C)(C)CCC2(C)C — lower, 93 to 94 °C
- CCC(=O)C(C=O)=Cc1cc(O)c(O)c(C#N)c1 — higher, 228 to 232 °C
- O=C(O)Cc1ccc(NC(=O)C(CCc2ccccc2)NS(=O)(=O)c2ccc(Cl)cc2)cc1 (racemic) — lower, 163 to 167 °C
- O=c1[nH]c2ccccc2n1CCCN1CCC(n2c(=S)[nH]c3ccccc32)CC1 — higher, 248 °C
- Cc1ccc(C(=O)Nc2nc(=O)n(C)cc2F)cc1 — higher, 229 to 230 °C
- CN(C)c1ccc(NC(=O)N(C[C@@H]2CCCC[C@H]2CN(C(=O)Nc2ccc(N(C)C)cc2)C2CCCCCC2)C2CCCCCC2)cc1 (relative stereo) — lower, 107 to 112 °C
- c1ccc2c(CCc3ccncc3)c[nH]c2c1 — lower, 154 to 158 °C
- COC(=O)c1cc(=O)c2cc(F)ccc2o1 — lower, 138 to 139 °C
- Cc1cc(NCc2ccc(Cl)cc2)nc(SCC#N)n1 — lower, 99 to 101 °C
- CN1CCN(CCSc2nc3ccccc3[nH]2)CC1 — lower, 93 to 95 °C
- NC(=O)c1ncn(C2OC(CO)C(O)C2O)c1C#Cc1ccccc1 (centres undefined) — lower, 168 to 169 °C
- CC(C)CC(=O)Nc1cc(-c2ccnc3c(C(=O)c4cccs4)cnn23)ccc1F — higher, 192 to 194 °C
- CCCN(CCC)C(=O)n1cnc(S(=O)(=O)CC(C)C)n1 — lower, 62 to 63.5 °C
- O=Cc1c2ccccc2c(OCCOCc2ccccc2)c2ccccc12 — lower, 68 to 69 °C
- CC(C)(C(O)c1ccc(Br)cc1)n1ncn(-c2ccc(N3CCN(c4ccc(O)cc4)CC3)cc2)c1=O (centres undefined) — higher, 224 °C
- CC(=O)OCC1OC(c2ccc(F)c(Cc3cccs3)c2)C(OC(C)=O)C(OC(C)=O)C1OC(C)=O (centres undefined) — lower, 119 to 121 °C
- O=C(O)c1cccnc1C(=O)c1cccc(C(F)(F)F)c1 — lower, 147 to 150 °C
- COC(OC)C1CN=C(c2cc3sc(C)c(N(C)S(=O)(=O)c4cccs4)c3[nH]2)S1 (centres undefined) — higher, 185 °C
- O=c1ccc(-c2cccc(F)c2)n[nH]1 — higher, 207 to 209 °C
- O=C(O)C1Cc2c(c(Cl)cc3c(-c4ccccc4)noc23)O1 (centres undefined) — higher, 221 to 224 °C
- O=c1cnc2cc(Cl)cc(Cl)c2[nH]1 — higher, 228 to 229 °C
- Cn1c(=O)c2cnc(N)nc2n(-c2ccccc2)c1=O — higher, > 300 °C
- O=C(C=CC(=O)Nc1ccccc1)NCc1cc(Br)cc2[nH]c(=O)c(=O)[nH]c12 — higher, > 250 °C
- C=CCC(F)(F)C(=O)C(Cc1ccccc1)NC(=O)c1ccccc1 (centres undefined) — lower, 98 °C
- CCN1C(=O)C(C)(C)C(=O)N(C)c2cc(CCN(CCn3ccc4oc(C)cc4c3=O)Cc3cc(C)nn3C)ccc21 — lower, 134 to 140 °C
- C=CCNC(=O)[C@H]1N(C(=O)OC(C)(C)C)CSC1(C)C — lower, 94 to 98 °C
- CCC(=CCn1oc(=O)[nH]c1=O)c1ccc2c(Cc3ccccc3)c(CC)oc2c1 — lower, 118 to 120 °C
- CC(C(O)c1ccc(N)cc1)N1CCC(Cc2ccccc2)CC1 (single isomer, unassigned; (-)) — lower, 104 to 107 °C
- c1cn2ccnc2c(N2CCOCC2)n1 — lower, 127 °C
- CNc1nc(N(C2CC(C)(C)N(O)C(C)(C)C2)C2CC(C)(C)N(O)C(C)(C)C2)nc(N(C2CC(C)(C)N(O)C(C)(C)C2)C2CC(C)(C)N(O)C(C)(C)C2)n1 — higher, 254 to 257 °C
- O=C(NNC(=O)c1cccc([N+](=O)[O-])c1)c1ccc([N+](=O)[O-])cc1 — higher, 250 to 251 °C
- CCc1cccc(C)c1CNc1cc(C(=O)NCCO)nc2c1nc(C)n2C — higher, 256 to 258 °C
- CN1c2ccc(-c3ccccc3)cc2S(=O)(=O)c2cc(-c3ccccc3)ccc21 — higher, 242 to 245 °C
- COc1cccc(OC(=O)/C=C/c2ccc(C(C)(C)C)cc2)c1 — lower, 83 °C
- Nc1cccc2c1N1CCN=C1S2 — higher, 229 °C
- COc1ccc(C(=O)NCC(O)CC(=O)O)cc1OCc1ccccc1 (centres undefined) — lower, 158 to 160 °C
- CC(C#N)N1CCC(C(=O)c2ccc(F)cc2)CC1 (centres undefined) — lower, 127 °C
- O=S(=O)(Br)c1ccc(Cl)s1 — lower, 35 to 37 °C
- COc1ccc(C2c3[nH]c4ccccc4c3CCN2C(=O)C=Cc2cccc([N+](=O)[O-])c2)cc1 (centres undefined) — higher, 227 °C
- CCCCc1cn(CCCC)c(=O)n1Cc1ccc(-c2cccnc2-c2nnn[nH]2)cc1 — lower, 178 to 180 °C
- CC(C)(N)Cc1c[nH]c2ccc(Cl)cc12 — lower, 156 to 158 °C
- CC(C)c1nc(-c2cccs2)cc(-c2ccc(F)cc2)c1C=O — lower, 123 to 125 °C
- CCc1cccc(C)c1CNc1cc(C(=O)OC)cn2c(C)nnc12 — higher, 214 °C
- CC(C)(C)c1cc(C(=O)OCc2ccc(C(=O)OCc3ccccc3)cc2)cc(C(C)(C)C)c1O — lower, 110 to 111 °C
- CC1C(=O)N(c2ccccc2)c2ccccc21 (centres undefined) — lower, 77 to 78 °C
- CC(=O)ONC(=N)c1ccc(-c2cccc(-c3nc4ccc(C(=N)NOC(C)=O)cc4[nH]3)n2)cc1 — lower, 150 to 153 °C
- Cc1c(NC(=O)CC(C)(C)C)cc2c(c1C)OC(C)(C)C2(O)c1cccc(C(C)C)c1 (centres undefined) — lower, 136 to 137 °C
- COC(=O)NCCCCC(=O)OC[C@@H]1CC(c2ccc(-c3ccc(N4C[C@H](Cn5ccnn5)OC4=O)cc3F)cn2)=NO1 — lower, 90 °C
- CCOCc1nc2c(N)nc3cc(-c4ccncc4)ccc3c2n1CC(C)C — higher, 211 to 213 °C
- CCOC(=O)CONC(=S)Nc1cc(Cl)ccc1C — lower, 117 to 119 °C
- O=C(NC1CCN(CCCOc2ccccc2C(=O)O)CC1)c1ccccc1 — higher, 207 to 208 °C
- Cc1ccc(Nc2ccccc2[N+](=O)[O-])c(C#N)c1 — lower, 135 to 139 °C
- CC1(C)NC(=O)N(c2ccc([N+](=O)[O-])cc2C(F)(F)F)C1=O — lower, 175 to 176 °C
- N=C(Nc1ccccc1)N1CCC1 — lower, 116 to 119 °C
- COC(=O)c1ccc(CC(C)NCC(O)c2cccc(Cl)c2)cc1 (centres undefined) — lower, 94 to 96 °C
- CCOC(=O)C1=Cc2sccc2S(=O)(=O)N1C — lower, 87 to 89 °C
- COC(OC)c1cc(=O)c2ccccc2o1 — lower, 64 to 68 °C
- Cc1nc(-c2cc3cccc(OC[C@@H](O)CN4CCC(c5ccc6ccccc6c5)CC4)c3o2)no1 — lower, 169 to 170 °C
- CON=Cc1ccc2c(c1)ncn2-c1cccc(-c2cccs2)c1 — not separable, 184 to 185 °C
- CNC(=NCCSCc1[nH]cnc1C)P(=O)(O)OC — lower, 170 to 171 °C
- CCOc1cc(O)nc(N(C)C)n1 — higher, 194 to 195 °C
- CC(C)n1ncnc1COc1nn2c(-c3cc(F)ccc3F)nncc2c1C(C)(C)C — lower, 163 °C
- O=C(O)Cc1cc2c(s1)-c1ccccc1SC2 — lower, 106 to 110 °C
- COc1ccc(CN2C(=O)C(C)(c3ccc(F)cc3Cl)c3cc(Cl)ccc32)c(OC)c1 (centres undefined) — lower, 166 °C
- COc1ccc(CCNC(=O)c2nc(N)sc2-c2ccncc2)cc1OC — lower, 167 to 168 °C
- CCC12CCC3C4=C(CCC3C1CCC2O)CC(OC)=CC4 (centres undefined) — lower, 98 to 104 °C
- CNS(=O)(=O)c1cc2c(c(C(=O)NCC3CCCN3C)c1)OCCO2 (centres undefined) — higher, 187 to 188 °C
- CNCc1cc(C(=O)c2cccs2)cc(C(C)(C)C)c1O — lower, 128 to 129 °C
- CN1CN(C)C(=N[N+](=O)[O-])N(Cc2ccc(Cl)nc2)C1 — lower, 116 to 117 °C
- O=C(NN=Cc1c(O)ccc2ccccc12)c1cc2ccccc2cc1O — higher, > 300 °C
- Cc1ccc(S(=O)(=O)OCCCOc2ccc([N+](=O)[O-])c(CS(=O)(=O)c3cccc4ccccc34)c2)cc1 — lower, 162 to 164 °C
- CCCCCN(C(=O)Oc1ccc(C(=O)O)cc1)c1ccc2c(c1)C(C)(C)CCC2(C)C — lower, 100 to 102 °C
- CC1(C)CCC2(Cc3ccc(Cl)cc3)OC12CO (centres undefined) — lower, 36 to 38 °C
- O=C(CCl)N1CC(c2ccc(F)cc2)Sc2ccccc21 (centres undefined) — lower, 122 to 124 °C
- COc1ccc(-c2nc(S(=O)CC3OCCO3)[nH]c2-c2ccc(OC)cc2)cc1 (centres undefined) — higher, 203 to 204 °C
- Cc1nc(N)c2nc(C)n(CCOCCCc3ccccc3)c2c1C — lower, 118 to 119 °C
- CCOC(=O)[C@@H]1C[C@H](Br)CN1C(=O)OC(C)(C)C — lower, 32 to 34 °C
- CCCCCCCCCCn1c(=S)nc2cc(Cl)ccn2c1=S — lower, 153 to 155 °C
- CCCn1c(COCC)nc2c(N)nc3ccc(OCCNS(C)(=O)=O)cc3c21 — lower, 178 to 180 °C
- NNC(=O)Cc1ccccc1S(N)(=O)=O — lower, 116 to 125 °C
- Cc1nc(C)c(C(=O)Nc2cccc(Oc3ccc4nc(NC(=O)C5CC5)cn4n3)c2)s1 — higher, 249 °C
- O=C(NC1CCC(CCN2CCC(c3cccc4c3CCO4)CC2)CC1)c1ccc(N2CCS(=O)(=O)CC2)cc1 (centres undefined) — higher, 282 °C
- CC(=O)Nc1nc2c(s1)-c1nn(C(=O)c3ccccc3)cc1CC2 — higher, 266 to 267 °C

From a melting point compilation (Tetko et al.; mined from patent text by program, amines drawn as free bases though some values may be those of a salt)
